These results are taken from patent publication US9751854B2 (Millennium Pharmaceuticals, Inc., priority 2014, dated 2017).

The target in the first assay is human VPS34 (Homo sapiens (Human), UniProt Q8NEB9). Briefly: Human VPS34 enzyme assay (Adapta TR-FRET ADP detection). The format is biochemical. More on the design: Percent Inhibition: dose or concentration left out as unconfirmed.
Chain of human VPS34 (Q8NEB9 whole entry): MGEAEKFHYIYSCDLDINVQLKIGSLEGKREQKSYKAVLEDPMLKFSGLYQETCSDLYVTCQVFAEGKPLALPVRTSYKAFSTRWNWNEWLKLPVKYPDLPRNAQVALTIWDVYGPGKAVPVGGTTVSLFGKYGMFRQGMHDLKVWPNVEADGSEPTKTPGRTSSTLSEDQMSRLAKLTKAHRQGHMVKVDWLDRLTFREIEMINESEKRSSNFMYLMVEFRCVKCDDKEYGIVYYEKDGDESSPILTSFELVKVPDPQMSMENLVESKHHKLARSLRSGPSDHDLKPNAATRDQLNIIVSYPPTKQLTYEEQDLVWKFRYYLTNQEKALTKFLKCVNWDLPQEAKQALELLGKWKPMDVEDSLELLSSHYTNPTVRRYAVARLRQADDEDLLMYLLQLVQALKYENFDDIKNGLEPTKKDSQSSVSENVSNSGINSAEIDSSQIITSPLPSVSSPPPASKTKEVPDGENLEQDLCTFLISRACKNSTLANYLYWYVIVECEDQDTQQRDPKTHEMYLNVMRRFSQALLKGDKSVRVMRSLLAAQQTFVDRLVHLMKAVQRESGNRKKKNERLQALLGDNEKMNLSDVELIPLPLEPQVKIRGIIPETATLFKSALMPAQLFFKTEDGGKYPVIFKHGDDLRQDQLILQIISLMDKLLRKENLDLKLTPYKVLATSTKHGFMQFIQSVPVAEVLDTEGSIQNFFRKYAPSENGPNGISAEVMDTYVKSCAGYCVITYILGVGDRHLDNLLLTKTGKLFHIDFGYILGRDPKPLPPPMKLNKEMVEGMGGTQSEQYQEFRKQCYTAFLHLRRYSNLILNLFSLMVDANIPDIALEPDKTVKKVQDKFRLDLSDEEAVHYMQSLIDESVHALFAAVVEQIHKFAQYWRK
Conditions: not given
In general terms: Time-resolved FRET reads energy transfer from a long-lived donor to a nearby acceptor.
Turning to `CCc1c(-c2ccnc(Nc3ccnc(C)n3)c2)cnc(Cl)c1NS(=O)(=O)c1ccc(F)cc1F` [Compound I-259, N-{6-chloro-4-ethyl-2′-[(2-methylpyrimidin-4-yl)amino]-3,4′-bipyridin-5-yl}-2,4-difluorobenzenesulfonamide], the “Percent Inhibition” value was found to be 79%.
The same measure, in the same setting: with `CC(=O)Nc1cc(-c2cnc(C)c(NS(=O)(=O)c3cccc(Cl)c3Cl)c2)ccn1` [Compound I-342, N-(5-{[(2,3-dichlorophenyl)sulfonyl]amino}-6-methyl-3,4′-bipyridin-2′-yl)acetamide] the figure was more than 99%; with `CC(=O)Nc1cc(-c2ccnc(Nc3ccnc(C4CC4)n3)c2)cn2nccc12` [Compound I-371, N-(6-{2-[(2-cyclopropylpyrimidin-4-yl)amino]pyridin-4-yl}pyrazolo[1,5-a]pyridin-4-yl)acetamide], more than 99%.

The assay is the same for the next values; noted with them: IC50 range class.
Usually IC50 stands for the concentration that gives 50% inhibition. `CC(=O)Nc1cc(-c2cnc3[nH]cc(S(=O)(=O)N4CCCC4)c3c2)ccn1` [Compound I-158, N-{4-[3-(pyrrolidin-1-ylsulfonyl)-1H-pyrrolo[2,3-b]pyridin-5-yl]pyridin-2-yl}acetamide]: the 50% inhibitory concentration (IC50) was less than 10 nM.
Still for that read-out and setting: for `CC(=O)Nc1cc(-c2cnc(C)c(NC(C)=O)c2)ccn1` [Compound I-193, N,N′-(6-methyl-3,4′-bipyridine-2′,5-diyl)diacetamide] the value was 50 to 100 nM; for `CC(=O)Nc1cc(-c2cnc(N)c(S(=O)(=O)N(C)CC3CC3)c2)ccn1` [Compound I-110, N-{6-amino-5-[(cyclopropylmethyl)(methyl)sulfamoyl]-3,4′-bipyridin-2′-yl}acetamide], less than 10 nM.
Same read-out and setting: for `CCc1c(-c2ccnc(Nc3ccnc(C)n3)c2)cnc(Cl)c1NS(=O)(=O)c1ccc(F)cc1F` [Compound I-259, N-{6-chloro-4-ethyl-2′-[(2-methylpyrimidin-4-yl)amino]-3,4′-bipyridin-5-yl}-2,4-difluorobenzenesulfonamide] the value was less than 10 nM; for `CC(=O)Nc1cc(-c2cnc(N)c(S(=O)(=O)NC34CC(C3)C4)c2)ccn1` [Compound I-11, N-[6-amino-5-(bicyclo[1.1.1]pent-1-ylsulfamoyl)-3,4′-bipyridin-2′-yl]acetamide], less than 10 nM; for `CC(=O)Nc1cc(-c2cnc(N)c(S(=O)(=O)Nc3ccc(F)cc3F)c2)ccn1` [Compound I-170, N-{6-amino-5-[(2,4-difluorophenyl)sulfamoyl]-3,4′-bipyridin-2′-yl}acetamide], less than 10 nM.
As to `Cc1nccc(Nc2cc(-c3cc(N)c4ccnn4c3)ccn2)n1` [Compound I-480, 6-{2-[(2-methylpyrimidin-4-yl)amino]pyridin-4-yl}pyrazolo[1.5-a]pyridin-4-amine], the IC50 was 50 to 100 nM.
Still for that read-out and setting: for `CC(=O)Nc1cc(-c2cnc(N)c(S(=O)(=O)Nc3ccccc3)c2)ccn1` [Compound I-43] the value was less than 10 nM; for `CC(=O)Nc1cc(-c2cnc(N)c(S(=O)(=O)N(C)C)c2)c(F)cn1` [Compound I-186], 10 to 50 nM.
`CC(=O)Nc1cc(-c2cnc(C)c(N3CCNS3(=O)=O)c2)ccn1` [Compound I-352, N-[5-(1,1-dioxido-1,2,5-thiadiazolidin-2-yl)-6-methyl-3,4′-bipyridin-2′-yl]acetamide]: the IC50 was 50 to 100 nM.
Consider `COc1ncc(-c2ccnc(NC(C)=O)c2)cc1S(=O)(=O)NC1CCC1` [Compound I-426, N-[5-(cyclobutylsulfamoyl)-6-methoxy-3,4′-bipyridin-2′-yl]acetamide], for which the IC50 fell in the range of 10 to 50 nM.
On the same count and under the same terms, with `CC(=O)Nc1cc(-c2cnc(C)c(NS(=O)(=O)c3cccc(Cl)c3Cl)c2)ccn1` [Compound I-342, N-(5-{[(2,3-dichlorophenyl)sulfonyl]amino}-6-methyl-3,4′-bipyridin-2′-yl)acetamide] the figure was less than 10 nM; with `CC(=O)Nc1cc(-c2cc(NS(=O)(=O)c3ccc(F)cc3F)c(C)[n+]([O-])c2)ccn1` [Compound I-258, N-[4-(5-{[(2,4-difluorophenyl)sulfonyl]amino}-6-methyl-1-oxidopyridin-3-yl)pyridin-2-yl]acetamide], 10 to 50 nM; with `CC(=O)Nc1cc(-c2cnc(C)c(NS(=O)(=O)N3CCCCCC3)c2)ccn1` [Compound I-341], 10 to 50 nM.
Regarding `CNc1c(Cl)ncc(-c2ccnc(Nc3ccnc(C)n3)c2)c1C` [Compound I-256, 6-chloro-N-5-4-dimethyl-N-2-(2-methylpyrimidin-4-yl)-3,4′-bipyridine-2′,5-diamine], the IC50 fell in the range of 10 to 50 nM.
In turn, `CC(=O)Nc1cc(-c2cnc(C)c(NS(=O)(=O)c3ccc(F)cc3F)c2C)ccn1` [Compound I-247, N-(5-{[(2,4-difluorophenyl)sulfonyl]amino}-4,6-dimethyl-3,4′-bipyridin-2′-yl)acetamide] came in with an IC50 of 10 to 50 nM.
Still for that read-out and setting: for `CC(=O)Nc1cc(-c2cnc3ccn(S(=O)(=O)c4ccccc4)c3c2)ccn1` [Compound I-23, N-{4-[1-(phenylsulfonyl)-1H-pyrrolo[3,2-b]pyridin-6-yl]pyridin-2-yl}acetamide] the value was less than 10 nM; for `CC(=O)Nc1cc(-c2cnc3c(c2)CCN3)ccn1` [Compound I-67, N-[4-(2,3-dihydro-1H-pyrrolo[2,3-b]pyridin-5-yl)pyridin-2-yl]acetamide], 50 to 100 nM; for `Cc1nccc(Nc2cc(-c3cnc4c(c3)C(=O)N(Cc3ccccc3)CC4)ccn2)n1` [Compound I-378, 6-benzyl-3-[2-[(2-methylpyrimidin-4-yl)amino]-4-pyridyl]-7,8-dihydro-1,6-naphthyridin-5-one], more than 100 nM.
For `Nc1cncc(-c2ccnc(N)c2)c1` [Compound I-231, 3,4′-bipyridine-2′,5-diamine], the IC50 is more than 100 nM.
With `CC(=O)Nc1cc(-c2cnc(N)c(C(=O)N3CCC(C)CC3)c2)ccn1` [Compound I-81, N-{6-amino-5-[[4-methylpiperidin-1-yl)carbonyl]-3,4′-bipyridin-2′-yl}acetamide], the IC50 is less than 10 nM.
The same measure, in the same setting: with `Cc1ncc(-c2ccnc(Nc3ncccn3)c2)cc1NS(=O)(=O)c1ccc(F)cc1F` [Compound I-265, 2,4-difluoro-N-[6-methyl-2′-(pyrimidin-2-ylamino)3,4′-bipyridin-5-yl]benzenesulfonamide] the figure was less than 10 nM; with `CC(=O)Nc1cc(-c2cnc(N(C)C)c(C(=O)NC34CC(C3)C4)c2)ccn1` [Compound I-283, 2′-Acetamido-N-(bicyclo[1.1.1]pent-1-yl)-6-(dimethylamino)-3,4′-bipyridine-5-carboxamide], 10 to 50 nM; with `CC(=O)Nc1cc(-c2cnc(Cl)c(NS(=O)(=O)N3CC4CCC3C4)c2C)ccn1` (centres unmarked) [Compound I-477, N-{5-[(2-azabicyclo[2.2.1]hept-2-ylsulfonyl)amino]-6-chloro-4-methyl-3,4′-bipyridin-2′-yl}acetamide], 10 to 50 nM.
The same measure, in the same setting: for `Cc1nc(Nc2cc(-c3cnc(C)c(NS(=O)(=O)c4ccc(F)cc4F)c3)ccn2)ccc1C#N` [Compound I-289, N-{2′-[(5-cyano-6-methylpyridin-2-yl)amino]-6-methyl-3,4′-bipyridin-5-yl}-2,4-difluorobenzenesulfonamide] the value was less than 10 nM; for `COC(=O)Nc1cc(-c2cnc(C)c(NS(=O)(=O)N(C)C)c2)ccn1` [Compound I-241, methyl (5-[(dimethylsulfamoyl)amino]-6-methyl-3,4′-bipyridin-2′-yl]carbamate], 10 to 50 nM; for `CNc1ncc(-c2ccnc(NC(C)=O)c2)cc1C(=O)N(C)C12CC(C1)C2` [Compound I-449, 2′-acetamido-N-(bicyclo[1.1.1]pent-1-yl)-N-methyl-6-(methylamino)-3,4′-bipyridine-5-carboxamide], 10 to 50 nM.
The same measure, in the same setting: with `CC(=O)Nc1cc(-c2ccnc(Nc3ccnc(C4CC4)n3)c2)cn2nccc12` [Compound I-371, N-(6-{2-[(2-cyclopropylpyrimidin-4-yl)amino]pyridin-4-yl}pyrazolo[1,5-a]pyridin-4-yl)acetamide] the figure was less than 10 nM.
Regarding `CC(=O)Nc1cc(-c2cnc(C)c(NS(=O)(=O)c3cc(C)ccc3C)c2)ccn1` [Compound I-178, N-(5-{[(2,5-dimethylphenyl)sulfonyl]amino}-6-methyl-3,4′-bipyridin-2′-yl)acetamide], the IC50 was less than 10 nM.
